US10526402B2, “Anti-TGF-beta antibody for the treatment of fanconi anemia” (Dana-Farber Cancer Institute, Inc., priority 2015, dated 2020)

Experiments:
U2OS cells = experiment: Homologous recombination assay with DR-GFP reporter; assay type: cell-based; conditions: 10 μM B02, FIG. 8D
Description: (§1) (A) Experimental scheme for inhibition of TGF-β Pathway in mice. WT or Fancd2−/− mice were treated with isotype or 1D11 antibody (10 mg/kg) for 48h, and bone marrow HSCs were sorted for gene expression profile and cell cycle analysis. […] Cell cycle analysis of HSCs from WT or Fancd2−/− mice treated with isotype or 1D11 antibody for 48h is shown. Error bars represent mean±s.e.m. (n=4 mice per group). […] Homologous recombination assay was measured in U2OS cells with DR-GFP reporter after treatment with […] RI-1 and 10 μM B02. The representative of two independent experiments is presented; error bars represent mean±s.e.m. […] GM6914 (FA-A) cells or corrected GM6914+FANCA cells were treated with 1 μM MMC and 10 μM inhibitors for 6h before immunofluorescence analysis. Representative images (E) and quantification (F) of RAD51 foci are shown. […] HSPCs from WT or Fancd2−/− mice were treated with B02 (10 μM) or RI-1 ([…]) in vitro for five days and survival was determined. […] HSPCs from WT or Fancd2−/− mice were exposed to 1D11 (10 μg/mL) and RAD51 inhibitors (10 μM) for 30 min followed by exposure to acetaldehyde for 4 hrs. The cells were then washed and cultured in presence of 1D11 and RAD51 inhibitors for 7-9 days, and hematopoietic colonies were counted.

GM6914 (FA-A) cells = experiment: RAD51 foci formation by immunofluorescence; assay type: cell-based; conditions: 1 μM MMC and 10 μM inhibitors for 6h; FIG. 8E, F
Description: as §1
Cells were grown on coverslip for 24 hours before treated with MMC. […]

[1] = system: HSPCs from WT or Fancd2−/− mice; experiment: Cytotoxicity of RAD51 inhibitors in HSPCs; assay type: cell-based, mouse; conditions: B02 (10 μM) or RI-1 (1004) in vitro for five days; FIG. 8G
Description: as §1

Fancd2−/− stromal cells = experiment: Survival of stromal cells in the presence of MMC; assay type: cell-based, mouse; conditions: FIG. 1A
Description: (§2) For survival assays, cells were seeded at a density of 1×10^3 cells per well in 96-well plates. After 72 hours of culture in indicated concentrations of MMC or post exposure of acetaldehyde, viability was assessed using CellTiterGlo reagent (Promega). In order to assess clonogenicity, cells were seeded at a low density (500-1000 cells per well) in 6-well plates and allowed to form colonies. The cells were then fixed in methanol/20% acetic acid and stained with 1% crystal violet. Colony formation was assessed by solubilizing crystal violet stain with methanol and quantifying UV absorbance for each condition.
as §2, with “3-6 days” for “72 hours”, “Colonies were counted after” for “Colony formation was assessed by solubilizing”, “staining.” for “stain with methanol and quantifying UV absorbance for each condition.”

TGFβ pathway = experiment: Immunoblot of p-Smad2 in stromal cells; assay type: cell-based, mouse; conditions: FIG. 1A bottom panel
[2] = system: Lin− cells from WT and Fancd2−/− mice; experiment: Lin− cell growth under mTGFβ; assay type: cell-based, mouse; conditions: mTGFβ 1 ng/mL; FIG. 2B
Description: For mouse hematopoietic stem/progenitor cell culture, Lin^− cells were cultured in vitro in StemSpan SFEM media with 10 ng/mL SCF, 20 ng/mL IGF-2, 20 ng/mL TPO, 10 ng/mL heparin, and 10 ng/mL a-FGF. Half media was changed every three days. For human cord blood cells, CD34+ cells were isolated using CD34 microbead kit (Miltenyi Biotec). Cells were cultured in StemSpan SFEM media with 100 ng/mL hSCF, 100 ng/mL FLT3 ligand, 10 ng/mL TPO, 10 ng/mL IL-6. Cells were treated with 10 ug/mL 1D11 or 10 μM SD208.
To perform flow cytometry analysis, Lin^− cells were collected at day 2 and 5 post transduction and suspended in staining medium (PBS with 2% heat-inactivated calf serum), and incubated with PE-conjugated c-Kit and APC-conjugated Sca-1 antibodies were added to the cells for 30 min at 4° C. in the dark. Stem cell population (GFP^+Lin^−c-Kit^+Sca-1^+) was analyzed by FACS. All these antibodies were purchased from eBioscience.

Structure (SMILES): O=c1c2ccccc2nc(/C=C/c2cccnc2)n1Cc1ccccc1 [B02]
- HR efficiency (DR-GFP recombination) (U2OS cells): significantly decrease HR efficiency
- RAD51 foci formation (GM6914 (FA-A) cells): efficiently block RAD51 foci formation
- cytotoxicity in HSPCs (survival) [1]: do not show cytotoxicity

Structure (SMILES): O=C1C(Cl)=C(N2CCOCC2)C(=O)N1c1ccc(Cl)c(Cl)c1 [RI-1]
- HR efficiency (DR-GFP recombination) (U2OS cells): significantly decrease HR efficiency
- RAD51 foci formation (GM6914 (FA-A) cells): efficiently block RAD51 foci formation
- cytotoxicity in HSPCs (survival) [1]: do not show cytotoxicity

Structure (SMILES): Fc1ccc(Cl)cc1-c1nc(Nc2ccncc2)c2nccnc2n1 [SD208]
- MMC sensitivity / resistance (survival) of Fancd2−/− stromal cells (Fancd2−/− stromal cells): restores MMC resistance
- activation of the TGFβ pathway (p-Smad2) in murine stromal cells (TGFβ pathway): inhibition of TGFβ signaling
- suppressive effect of exogenous mTGFβ on Lin− cell growth [2]: rescued the inhibitory effect
